One series relates to Hepatocyte. Nature of the series: Intrinsic clearance in rat hepatocytes assessed per 10^6 cells. It is filed as ADME, cell-based.
A short description of series [1]: Oral bioavailability in rat. It is filed as ADME, organism-based. The note with it: in vivo.
A short description of series [2]: Octanol-water partition coefficient, log D of the compound by HPLC analysis.
Series [3] is described as follows: Solubility of the compound.
Series [4] addresses Voltage-gated inwardly rectifying potassium channel KCNH2 (Homo sapiens, UniProt Q12809).
The target of a further series is T1, Hexokinase-4 (Homo sapiens, UniProt P35557).
T1 sequence (P35557 whole entry): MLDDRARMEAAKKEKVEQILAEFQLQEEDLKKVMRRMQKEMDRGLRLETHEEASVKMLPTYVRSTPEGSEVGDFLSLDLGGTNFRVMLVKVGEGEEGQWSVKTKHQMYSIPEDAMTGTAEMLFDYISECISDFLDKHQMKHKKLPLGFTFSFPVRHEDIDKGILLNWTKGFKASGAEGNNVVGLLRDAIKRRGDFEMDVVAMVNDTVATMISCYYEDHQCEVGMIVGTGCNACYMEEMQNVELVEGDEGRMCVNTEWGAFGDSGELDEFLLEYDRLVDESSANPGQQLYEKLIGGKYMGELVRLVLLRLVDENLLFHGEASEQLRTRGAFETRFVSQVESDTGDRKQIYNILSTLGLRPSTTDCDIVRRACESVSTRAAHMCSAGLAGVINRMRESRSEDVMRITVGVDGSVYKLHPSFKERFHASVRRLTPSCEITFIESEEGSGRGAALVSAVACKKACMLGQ
The series is described as follows: Activation of human glucokinase.

A short description of series [5]: Clearance in rat. It counts as ADME, organism-based. Particulars: in vivo.
A short description of series [6]: Volume of distribution at steady state in rat. It counts as ADME, organism-based. The note with it: in vivo, read-out: Vdss.
In a further series the test system is Liver microsomes. The series is described as follows: Drug metabolism in human liver microsomes assessed as glutathione adduct formation relative to clozapine. It counts as ADME, Microsome. On the technique in general: Microsomes from liver hold many membrane-bound enzymes, among them those of drug oxidation.

Values after ≈ are worked out from the molar mass of the structure shown. Where only a bound is given, the exact number is not on record here.

By bioavailability is commonly meant dose-corrected exposure relative to a reference, in per cent. Low readings indicate poor availability, high ones good availability. For orientation: logD means lipophilicity at a set pH, counting ionised and neutral species. Low readings indicate lower lipophilicity, high ones higher lipophilicity. By solubility is commonly meant the concentration that dissolves in the medium under given conditions. A low value points to a poorly soluble substance. By IC50 is commonly meant the concentration needed to halve the response being measured. A high value points to a need for much substance. As a reminder, the EC50 is the midpoint of the concentration-response curve. A word on the clearance: it is the volume of plasma or blood freed of the substance per unit of time. Lower therefore signals a low capacity for elimination.

Sequence of Voltage-gated inwardly rectifying potassium channel KCNH2 (Q12809 whole entry): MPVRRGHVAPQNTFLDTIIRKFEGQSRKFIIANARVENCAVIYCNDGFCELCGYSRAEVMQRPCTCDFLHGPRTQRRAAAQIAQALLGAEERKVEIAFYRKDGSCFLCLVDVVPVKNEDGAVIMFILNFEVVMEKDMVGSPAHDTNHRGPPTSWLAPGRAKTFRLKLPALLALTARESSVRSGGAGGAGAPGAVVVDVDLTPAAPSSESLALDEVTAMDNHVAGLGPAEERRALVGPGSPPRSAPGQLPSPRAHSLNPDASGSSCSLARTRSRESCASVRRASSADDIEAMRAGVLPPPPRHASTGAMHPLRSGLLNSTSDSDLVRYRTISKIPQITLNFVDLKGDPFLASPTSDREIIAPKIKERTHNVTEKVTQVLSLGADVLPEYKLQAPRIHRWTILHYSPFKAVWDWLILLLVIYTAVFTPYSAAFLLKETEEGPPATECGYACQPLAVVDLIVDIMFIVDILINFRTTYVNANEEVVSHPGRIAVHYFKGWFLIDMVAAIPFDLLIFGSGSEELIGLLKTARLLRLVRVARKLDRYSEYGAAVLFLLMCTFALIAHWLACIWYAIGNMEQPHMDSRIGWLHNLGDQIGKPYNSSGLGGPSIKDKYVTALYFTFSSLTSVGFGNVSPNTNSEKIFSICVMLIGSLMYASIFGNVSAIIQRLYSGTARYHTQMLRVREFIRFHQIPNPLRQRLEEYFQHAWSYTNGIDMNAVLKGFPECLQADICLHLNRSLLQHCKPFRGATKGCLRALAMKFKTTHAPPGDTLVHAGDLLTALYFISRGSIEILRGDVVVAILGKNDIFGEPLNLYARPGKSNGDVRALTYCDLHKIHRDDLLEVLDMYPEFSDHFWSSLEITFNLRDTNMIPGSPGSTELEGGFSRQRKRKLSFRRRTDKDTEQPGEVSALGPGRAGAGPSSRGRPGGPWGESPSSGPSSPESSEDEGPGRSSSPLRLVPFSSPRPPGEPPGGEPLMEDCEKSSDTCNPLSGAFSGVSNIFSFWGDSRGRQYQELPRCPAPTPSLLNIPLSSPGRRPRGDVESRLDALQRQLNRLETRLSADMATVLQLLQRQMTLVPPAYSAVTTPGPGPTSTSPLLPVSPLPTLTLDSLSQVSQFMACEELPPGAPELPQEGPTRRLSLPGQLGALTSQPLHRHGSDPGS

`COCC[C@H](Oc1ncnc2c1cnn2-c1ccccc1Cl)C(=O)Nc1ccc(C)cn1`: in the series on Hepatocyte, the CLint came to 35 µL/min/1e6 cells. The same molecule registered a bioavailability in series [1] of 53%. The logD in [2] was 3.9. In [3], this molecule returned a solubility of 95 µM (≈ 43 µg/mL). The same molecule had an IC50 in series [4] of 22000 nM. Also, the EC50 at Hexokinase-4 is 50.1 nM. This molecule also displayed a clearance in series [5] of 34 mL/min/kg. The Vd in series [6] amounted to 3.2 L/kg.
For `CCCCC(Oc1ncnc2c1cnn2-c1ccccc1Cl)C(=O)Nc1nc(C)cs1` (racemic), in series [2], the logD came to 5.7. The EC50 on Hexokinase-4 was 126 nM.
In the case of `Cc1csc(NC(=O)CSc2ncnc3c2cnn3-c2ccccc2Cl)n1`, the logD in [2] worked out at 3.8. The midpoint of the response at Hexokinase-4, the EC50, lay at 2510 nM. In addition, the “fold change (FC)” value with Liver microsomes came out at 5.
Taken in the same sequence, the figures for `COCCC(Sc1ncnc2c1cnn2-c1ccccc1Cl)C(=O)Nc1nc(C)cs1` (racemic) were 4.8, 794 nM and 5.
At Hexokinase-4, `Cc1csc(NC(=O)CSc2ncnc3c2cnn3-c2ccccc2)n1` had a 50% effective concentration (EC50) above 100000 nM.
Take `COCC[C@H](Oc1ncnc2c1cnn2-c1ccccc1OC)C(=O)Nc1ccc(C)cn1`: in the series with Hepatocyte, the CLint came out at 132 µL/min/1e6 cells. The logD in series [2] came out at 3.5. This molecule also came in with a solubility in series [3] of 86 µM (≈ 38.6 µg/mL). Also, in [4], the IC50 was above 33000 nM. On Hexokinase-4, the response was half-maximal at 126 nM (EC50).
Regarding `Cc1csc(NC(=O)COc2ncnc3c2cnn3-c2ccccc2Cl)n1`, the logD in [2] is 3.2. On Hexokinase-4, this molecule showed an EC50 of 1580 nM.
`Cn1ccc(NC(=O)CSc2ncnc3c2cnn3-c2ccccc2Cl)n1` displayed a logD in series [2] of 2.5. On Hexokinase-4, this molecule gave an EC50 of 15800 nM. Further, the “fold change (FC)” value in the series on Liver microsomes was found to be 5.
As to `Cc1csc(NC(=O)C(Sc2ncnc3c2cnn3-c2ccccc2Cl)c2ccccc2)n1` (racemic), in series [2], the logD was found to be 5.6. The same molecule showed an EC50 on Hexokinase-4 above 100000 nM. Also, the “fold change (FC)” value in the series with Liver microsomes is on record as 5.
In series [2], `COCCC(Oc1ncnc2c1cnn2-c1ccccc1C)C(=O)Nc1ccc(C)cn1` (racemic) yielded a log distribution coefficient (logD) of 4.2. The EC50 at Hexokinase-4 was 316 nM.
Turning to `COCCOCCC(Sc1ncnc2c1cnn2-c1ccccc1Cl)C(=O)Nc1nc(C)cs1` (racemic), the logD in [2] is 4.7. At Hexokinase-4, this molecule had an EC50 of 3160 nM. Further, the “fold change (FC)” value with Liver microsomes stood at 5.
In the same order, the values of `CCCCC(Sc1ncnc2c1cnn2-c1ccccc1Cl)C(=O)Nc1nc(C)cs1` (racemic) are 6.4, 631 nM and 5.
For the molecule `COCCC(Oc1ncnc2c1cnn2-c1ccccc1Cl)C(=O)Nc1ccc(C)cn1` (racemic), the logD in series [2] came out at 4.1. The response at Hexokinase-4 was half-maximal at 100 nM (EC50).
In the same order, the values of `COCCC(Oc1ncnc2c1cnn2-c1ccccc1OC)C(=O)Nc1ccc(C)cn1` (racemic) are 3.5 and 200 nM.
In the case of `O=C(CSc1ncnc2c1cnn2-c1ccccc1Cl)Nc1ccccc1`, the logD in [2] amounted to 4.3. At Hexokinase-4, this molecule had an EC50 above 100000 nM. In addition, the “fold change (FC)” value with Liver microsomes is recorded as 5.
In the same order, the values of `O=C(CSc1ncnc2c1cnn2-c1ccccc1Cl)Nc1ncccn1` are 2.2, above 100000 nM and 5.
In the case of `Cc1ccc(NC(=O)CSc2ncnc3c2cnn3-c2ccccc2Cl)nc1`, in series [2], the logD was determined as 4.2. This molecule also had an EC50 on Hexokinase-4 of 501 nM. The “fold change (FC)” value in the series with Liver microsomes turned out to be 5.
In the case of `COCC[C@H](Oc1ncnc2c1cnn2-c1ccccc1C(F)(F)F)C(=O)Nc1ccc(C)cn1`, the CLint in the series with Hepatocyte came to 27 µL/min/1e6 cells.

The values are drawn from ChEMBL document CHEMBL2202962, “The discovery of a novel series of glucokinase activators based on a pyrazolopyrimidine scaffold” (Bioorg Med Chem Lett, 2012).
